# Measurements as given in patent US20070149401A1, “METHODS AND COMPOSITION FOR GROWTH ENGINEERING AND DISEASE CONTROL” (Syngenta Crop Protection, Inc., priority 2005, published 2007).
# Legend:
# vine ripe tomatoes = test: Yields of vine ripe tomatoes; assay type: in vivo, tomato
# Excerpt: Table O also illustrates the safening effect of the PGR on the seed to later foliar application of the plant activator. Without the PBZ on the seed, the yield decreases from 119 to 96.
# Barley [1] = test: Barley lodging control; assay type: in vivo
# Description: (§1) Barley seeds were treated with paclobutrazol (alone) and with paclobutrazol in combination with gibberrelic acid at varying rates. The resulting plants were then additionally treated with foliar applications of trinexapac plant growth regulator (applied as Palisade™ 128 and Palisade™ 150) at the Feekes 6 timing. Emergence and percent lodging were measured against the check. The results are found in Tables BB and CC.
# [2] = system: Variety Florida 47 tomatoe; test: Water use efficiency: cumulative water used by tomato transplants; assay type: in vivo; conditions: for Cumulative Water Used (ml/6 plants), projected through 6th week: Table H
# Description: Variety Florida 47 tomatoe seeds were treated and the plants tested with respect to the cumulative amount of water used to sustain the plants from seeding through growth.
# Using the data obtained from these trials, and empirical calculations, a tomato transplant business could save approximately 700 gallons of water while producing 27,000 transplants.
# 20 tables/greenhouse×28 flats/table×48 plants/flat×0.6 liters/6 plants×gal/3.75 1=710 gallons of water.
# Barley [3] = test: Barley emergence after PGR seed treatments; assay type: in vivo
# Description: as §1
# Colorado Potato Beetle = test: Insect control: Colorado Potato Beetle count on plants from treated seed; assay type: in vivo
# Excerpt: Presence of Colorado Potato Beetle was studied in plants resulting from the seed treatments with paclobutrazol.
# Xanthamonas spp. = test: Xanthamonas infection of tomato transplants; assay type: in vivo; conditions: versus fungicidal mixture alone
# Excerpt: Disease resistance in the post-emergent plant has also been shown through use of plant growth regulators as a seed treatment. A set of tomato transplants from seed treated with paclobutrazol and a fungicidal mixture of fludioxonil and mefenoxam was inoculated with Xanthamonas spp. 18 days after transplanting. […] The antibacterial activity of the PGR-treated plants is significant at several rates of application.
smiles,measurement,setting,value
"CSC(=O)c1cccc2nnsc12 [ASM, acibenzolar-S-methyl]",Cumulative Tomato Yields No. Fruit/Plot (12 plants),"vine ripe tomatoes; 29-Aug, averages of 5 programs (ASM) and 3 programs (ASM + PBZ), PBZ on seed, ASM foliar",96
O=C1CC(C(=O)O)CC(=O)C1=C(O)C1CC1 (stereo not shown) [Trinexapac [150] Feekes 6],% Lodging,Barley [1]; 7 Jun,0.2%
same,% Lodging,Barley [1]; 11 Jun,0%
same,% Lodging,Barley [1]; 18 Jun,0%
same,% Lodging,Barley [1]; 19 May,11.7%
"CC(C)(C)[C@@H](O)[C@@H](Cc1ccc(Cl)cc1)n1cncn1 (racemic) [PBZ, paclobutrazol]","Cumulative Water Used (ml/6 plants), projected through 6th week",[2]; 1-Aug,883 ml/6 plants
same,"Cumulative Water Used (ml/6 plants), projected through 6th week",[2]; 21-Jul,113 ml/6 plants
same,"Cumulative Water Used (ml/6 plants), projected through 6th week",[2]; 22-Jul,172 ml/6 plants
same,"Cumulative Water Used (ml/6 plants), projected through 6th week",[2]; 23-Jul,259 ml/6 plants
same,"Cumulative Water Used (ml/6 plants), projected through 6th week",[2]; 25-Jul,339 ml/6 plants
same,"Cumulative Water Used (ml/6 plants), projected through 6th week",[2]; 26-Jul,423.17 ml/6 plants
same,"Cumulative Water Used (ml/6 plants), projected through 6th week",[2]; 27-Jul,506 ml/6 plants
same,"Cumulative Water Used (ml/6 plants), projected through 6th week",[2]; 28-Jul,575 ml/6 plants
same,"Cumulative Water Used (ml/6 plants), projected through 6th week",[2]; 29-Jul,649 ml/6 plants
same,"Cumulative Water Used (ml/6 plants), projected through 6th week",[2]; 31-Jul,790 ml/6 plants
same,water use (in words),[2]; during transplant production,decreased water use
same,yield (in words),"vine ripe tomatoes; PBZ on the seed, later foliar plant activator",substantially higher
same,"Emergence, 8 Days after planting (no. emerged-6 ft row)",Barley [3]; listed as PBZ rate (1),68.2
same,"Emergence, 8 Days after planting (no. emerged-6 ft row)",Barley [3]; listed as PBZ rate (3),38.7
same,"Emergence, 8 Days after planting (no. emerged-6 ft row)",Barley [3]; listed as PBZ ratge (2),36.3
same,"Emergence, 14 Days after planting (no. emerged-6 ft row)",Barley [3]; listed as PBZ rate (1),113.2
same,"Emergence, 14 Days after planting (no. emerged-6 ft row)",Barley [3]; listed as PBZ rate (3),114.5
same,"Emergence, 14 Days after planting (no. emerged-6 ft row)",Barley [3]; listed as PBZ ratge (2),106.3
same,% Lodging,"Barley [1]; 7 Jun, listed as PBZ rate (1)",85.8%
same,% Lodging,"Barley [1]; 7 Jun, listed as PBZ rate (3)",72.5%
same,% Lodging,"Barley [1]; 7 Jun, listed as PBZ ratge (2)",68.3%
same,% Lodging,"Barley [1]; 11 Jun, listed as PBZ rate (1)",29.2%
same,% Lodging,"Barley [1]; 11 Jun, listed as PBZ rate (3)",9.2%
same,% Lodging,"Barley [1]; 11 Jun, listed as PBZ ratge (2)",16.8%
same,% Lodging,"Barley [1]; 18 Jun, listed as PBZ rate (1)",31.7%
same,% Lodging,"Barley [1]; 18 Jun, listed as PBZ rate (3)",20%
same,% Lodging,"Barley [1]; 18 Jun, listed as PBZ ratge (2)",23.3%
same,% Lodging,Barley [1]; 19 May,0%
same,No. Potato Beetle Adults/plant,Colorado Potato Beetle,0.8
same,resistance against xanthamonas infection (in words),Xanthamonas spp.,greater resistance
O=C1CC(C(=O)O)CC(=O)C1=C(O)C1CC1 (stereo not shown) [Trinexapac [128] Feekes 6],% Lodging,Barley [1]; 7 Jun,7.5%
same,% Lodging,"Barley [1]; 7 Jun, listed as Trinexapac [128] Feekes 6 + 7 days",79.2%
same,% Lodging,Barley [1]; 11 Jun,0.5%
same,% Lodging,"Barley [1]; 11 Jun, listed as Trinexapac [128] Feekes 6 + 7 days",17.2%
same,% Lodging,Barley [1]; 18 Jun,0%
same,% Lodging,"Barley [1]; 18 Jun, listed as Trinexapac [128] Feekes 6 + 7 days",1.7%
same,% Lodging,Barley [1]; 19 May,8.3%
same,% Lodging,"Barley [1]; 19 May, listed as Trinexapac [128] Feekes 6 + 7 days",7.5%
